Laboratory results taken from article PMC6508677, “Identification of druggable small molecule antagonists of the Plasmodium falciparum hexose transporter PfHT and assessment of ligand access to the glucose permeation pathway via FLAG-mediated protein engineering” (PLoS ONE, 2019).
Several values for one entry are separate records, joined by “and”; a condition that tells them apart may be missing. Equal entries are not always repeated.

What was measured:
PfHT [1] = molecular target: T1, PfHT (Plasmodium falciparum, UniProt Q7KWJ5); experiment: [3H]-D-fructose uptake by HEK293 cells overexpressing PfHT; type: cell-based; design: expressed in transfected cells; host or cells: HEK293 (HEK293-FLIP, native hGLUT1 knocked down by shRNA)
T1 sequence (Q7KWJ5 1-504): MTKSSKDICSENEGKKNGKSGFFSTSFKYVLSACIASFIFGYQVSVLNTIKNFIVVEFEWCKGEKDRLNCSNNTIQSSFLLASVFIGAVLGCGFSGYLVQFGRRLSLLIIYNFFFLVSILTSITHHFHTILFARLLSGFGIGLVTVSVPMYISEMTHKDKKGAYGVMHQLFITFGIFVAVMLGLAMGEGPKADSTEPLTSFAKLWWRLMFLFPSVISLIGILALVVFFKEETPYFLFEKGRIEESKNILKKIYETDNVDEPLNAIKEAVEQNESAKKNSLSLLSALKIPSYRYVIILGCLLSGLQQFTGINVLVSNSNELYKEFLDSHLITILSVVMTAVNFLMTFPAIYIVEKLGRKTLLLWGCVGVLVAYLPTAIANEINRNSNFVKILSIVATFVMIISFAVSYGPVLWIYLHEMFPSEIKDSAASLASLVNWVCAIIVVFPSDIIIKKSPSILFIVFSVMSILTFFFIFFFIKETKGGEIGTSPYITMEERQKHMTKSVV
Excerpt: Generation of HEK293 cells overexpressing PfHT and human GLUTs 1–4 were described elsewhere. Briefly, HEK293 cells were transfected with pcDNA3.1 FLII12Pglu-7006 (Addgene), containing the fluorescence resonance energy transfer (FRET) glucose sensor (HEK293-FLIP) and PfHT, human GLUT1 (hGLUT1), hGLUT2, hGLUT3, hGLUT4, hGLUT5 or hGLUT8 using Optifect (Life Technologies) according to manufacturer’s specifications. To increase retention of GLUT8 at the plasma membrane, the dileucine sorting signal E^7E^8XXXLL was modified to R^7R^8XXXLL as described in [17]. Stable transfectants were selected for G418 and hygromycin resistance to select for FRET sensor and hexose transporter, respectively. HEK293-FLIP cells were also used to generate cells stably transfected with FLAG-tagged PfHT (FTPfHT). FLAG tag ([…]) followed by a triple glycine linker and a tobacco etch virus (TEV) protease site (ENLYFQS) followed by a triple glycine linker was added to the N-terminus of PfHT via PCR [18] using Phusion Hot Start II High-Fidelity DNA Polymerase (Fisher Scientific). Single clones were selected by comparing their abilities to transport glucose as assayed via FRET and radiolabeled hexose uptake. In all cell lines, except for HEK293 cells overexpressing hGLUT1 and hGLUT5, native hGLUT1 was knocked down using shRNA as described elsewhere. Transcript levels of the individual GLUTs expressed in each cell line are as described in [13, 15] and in S1 Fig.
(§1) Glucose uptake by P. falciparum was performed essentially as described. P. falciparum strain 3D7 was cultured in 100 mm tissue culture dishes (Techno Plastic Products) in a 2% suspension of human erythrocytes and RPMI 1640 medium until reaching > 7.5% parasitemia. Cells were pelleted via centrifugation and resuspended in RPMI 1640 medium. To determine the uptake of radiolabeled glucose into the parasite, parasites were isolated from infected erythrocytes by permeablization with saponin (0.05 w/v), followed by centrifugation, aspiration of supernatant and washing of the pellet 3X with saline solution (135 mM NaCl, 2 mM KCl, 25 mM HEPES, 0.2 mM glucose and 1 mM MgCl2; pH 7.1) to remove cellular debris. WU-1 or DMSO vehicle were added to 100 μl parasites (resuspended in saline) 5 min prior to the addition of 100 μl [^14C]2-DOG (0.2- μCi/ml final concentration). 2-DG uptake was stopped after 2 min by layering the entire reaction over 300 μl of an oil mixture (5:4 mix of dibutyl phthalate / dinonyl phthalate) in Eppendorf tubes and centrifuged at 15,850 × g for 2 mins. The ratio of the estimated intracellular concentration of radiolabel relative to the extracellular concentration were calculated as described. Uptake of radiolabeled hexose into HEK293 cells was measured in glucose-free HBSS as described previously. Briefly, cells were plated at 400,000 cells/well overnight at 37°C in 24-well plates pre-treated with PEI. After 30-min incubation at 37°C in glucose-free HBSS in the presence of vehicle or increasing concentrations of compound, 2-DG uptake was measured in glucose-free HBSS for 4 min at 37°C. Cultures were washed in ice-cold 1X PBS and lysed in 0.1% Triton X-100 in 1X PBS. Radiolabeled hexose uptake was determined by liquid scintillation counting (Ultima Gold, Thermo Fisher) and normalized to total protein per well. Uptake data are plotted as percent uptake relative to vehicle-treated cells. Kinetic analyses were performed using the indicated concentrations of substrate and WU-1, with quenching of uptake after 1 min incubation. Incubation times had been previously determined as being in the linear range of time-dependent radiolabeled hexose uptake (2 min for 2-DG uptake into freed parasites; 2 and 4 min for D-Frc and 2-DG uptake HEK cell lines, respectively). Data were fit by least squares nonlinear regression analysis using GraphPad Prism 6.0 software.

PfHT [2] = molecular target: T1, PfHT; experiment: Kinetic analysis (Dixon plot) of zero-trans D-fructose uptake in HEK293PfHT cells; type: cell-based; design: expressed in transfected cells; host or cells: HEK293 (HEK293-FLIP, native hGLUT1 knocked down by shRNA)
Experimental: as §1, with “Uptake data are plotted as percent uptake relative to vehicle-treated cells. Kinetic analyses were performed using the indicated concentrations of substrate and WU-1, with quenching of uptake after 1 min incubation.” left out, “Data were fit by least squares nonlinear regression analysis using GraphPad Prism 6.0 software.” left out

Work on Cc1ccc(S(=O)(=O)CCNC(=O)c2c(-c3c(Cl)cccc3Cl)noc2C)cc1 [WU-1, 3-(2,6-dichlorophenyl)-5-methyl-N-[2-(4-methylbenzenesulfonyl)ethyl]-1,2-oxazole-4-carboxamide] yielded an IC50 (PfHT [1]; AVE IC50 (µM), PfHT, D-frc Uptake, average of Expt 1-3) of 4.99 µM, a remaining activity at 0.001 µM (PfHT [1]; HEK293, 2 min, read-out: D-frc Uptake AVE, PfHT, concentration 0.001 µM, Expt 1-3) of 101% and a remaining activity at 0.63 µM (PfHT [1]; HEK293, 2 min, read-out: D-frc Uptake AVE, PfHT, concentration 0.63 µM) of 80.7%. The remaining activity at 1.25 µM (PfHT [1]; HEK293, 2 min, read-out: D-frc Uptake AVE, PfHT, concentration 1.25 µM) was 72.3%, the remaining activity at 2.5 µM (PfHT [1]; HEK293, 2 min, read-out: D-frc Uptake AVE, PfHT, concentration 2.50 µM) was 68.5% and the remaining activity at 5 µM (PfHT [1]; HEK293, 2 min, read-out: D-frc Uptake AVE, PfHT, concentration 5.00 µM) was 49.6%. The remaining activity at 10 µM (PfHT [1]; HEK293, 2 min, read-out: D-frc Uptake AVE, PfHT, concentration 10.00 µM) was 37.9%, the remaining activity at 20 µM (PfHT [1]; HEK293, 2 min, read-out: D-frc Uptake AVE, PfHT, concentration 20.00 µM) was 22.3% and the remaining activity at 40 µM (PfHT [1]; HEK293, 2 min, read-out: D-frc Uptake AVE, PfHT, concentration 40.00 µM) was 15.6%. The remaining activity at 80 µM (PfHT [1]; HEK293, 2 min, read-out: D-frc Uptake AVE, PfHT, concentration 80.00 µM) was 10.7%, the remaining activity at 225 µM (PfHT [1]; HEK293, 2 min, read-out: D-frc Uptake AVE, PfHT, concentration 225.00 µM) was 8.85% and the remaining activity at 160 µM (PfHT [1]; HEK293, 2 min, read-out: D-frc Uptake AVE, PfHT, concentration […]) was 7.62%. The IC50 (PfHT [1]; IC50 (µM), PfHT, D-frc Uptake, single experiments Expt 1-3) was 4.57 µM and 6.26 µM and 4.14 µM, the IC50 (PfHT [1]; IC50, D-fructose (Frc) uptake, PfHT cell line) was 5 ± 0.7 µM and the “Selectivity Index, Frc, PfHT line itself” value (PfHT [1]; reference value) was 1.0. The Ki (PfHT [2]; Ki (Dixon plot, horizontal intercepts), zero-trans D-fructose uptake, HEK293PfHT, mean) was 4.4 ± 0.3 µM, the Ki (PfHT [2]; Ki (µM) from individual Dixon lines, one value per D-fructose concentration line) was 5.32 µM and 4.25 µM and 3.83 µM and 4.22 µM and the mode of inhibition (PfHT [2]; zero-trans D-fructose uptake/hexose influx by PfHT) was “non-competitive inhibitor”.
